# In patent publication US6906094B2, “1,2,4-tribsubstituted benzenes as inhibitors of 15-lipoxygenase” (Warner-Lambert Company, priority 2000, dated 2005):
# Molecular target: T1, human 15-LO (Homo sapiens, UniProt P16050)
# T1 construct: made in house; host or cells: Sf9 insect cells (baculovirus, Bac-to-Bac)
# T1 sequence (P16050 1-662): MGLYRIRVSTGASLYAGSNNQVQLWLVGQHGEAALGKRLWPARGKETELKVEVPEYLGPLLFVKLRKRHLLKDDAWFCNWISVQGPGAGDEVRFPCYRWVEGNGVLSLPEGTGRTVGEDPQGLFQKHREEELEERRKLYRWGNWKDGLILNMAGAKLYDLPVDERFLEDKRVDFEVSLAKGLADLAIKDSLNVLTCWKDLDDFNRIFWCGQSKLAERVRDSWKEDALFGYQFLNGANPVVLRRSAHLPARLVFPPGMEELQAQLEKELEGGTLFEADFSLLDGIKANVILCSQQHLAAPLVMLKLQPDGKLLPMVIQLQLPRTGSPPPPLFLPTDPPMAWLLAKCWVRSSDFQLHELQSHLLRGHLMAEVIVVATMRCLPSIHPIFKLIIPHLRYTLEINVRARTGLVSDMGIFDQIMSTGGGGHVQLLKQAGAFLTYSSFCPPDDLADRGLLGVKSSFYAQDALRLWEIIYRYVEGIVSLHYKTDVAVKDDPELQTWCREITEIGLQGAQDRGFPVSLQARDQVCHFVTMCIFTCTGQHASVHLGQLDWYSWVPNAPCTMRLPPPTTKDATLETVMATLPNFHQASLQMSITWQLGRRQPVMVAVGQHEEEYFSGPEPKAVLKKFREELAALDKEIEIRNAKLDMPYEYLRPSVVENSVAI
# Experiment: Human Lysate 15-LO Assay (HUM15LO)
# Type: biochemical
# Details: recombinant human 15-LO, 174 μM linoleic acid, 15 minutes at 4° C., 13-HODE quantitated
# Description: In the HUM15LO assay, a test compound of the present invention was incubated with 15-LO enzyme in the presence of the linoleic acid substrate. For example, a known amount of a test compound of the present invention, 100 μL of human 15-LO, and 174 μM linoleic acid in PBS containing 0.2% sodium cholate were incubated for 15 minutes at 4° C. The reaction was stopped with 100 μL of mobile phase and 10 μL of triethyl phosphite. […] 13-HODE was quantitated by comparing peak areas of individual samples with those from a standard curve generated using authentic 13-HODE. The test reaction is compared to a control reaction, which is identical to the test reaction except no test compound of the present invention is present Percent inhibition is calculated as the amount of 13-HODE produced by the test reaction divided by the amount of 13-HODE produced by the control reaction, expressed as a percent.
# Human 15-LO was generated in a recombinant 15-lipoxygenase bacculovirus expression system, using Gibco/BRL/Life Technologies' Bac-to-Bac expression reagents; T4 DNA ligase, Kanamycin, Gentamicin, tetracycline, penicillin, streptomycin, Bluo-gal, IPTG, DH10Bac competent cells, SOC, LB medium, Sf-900 II SFM media, Sf9 insect cells, Cell Fectin, and EcoRI, BamHI and KpnI restriction enzymes.
row,Compound,IC50 [nM]
1,"COc1ccc(C(=O)Nc2ccc(F)c(F)c2)cc1NS(=O)(=O)NC(=O)OCCN1CCOCC1 [Example 2, Carbamic Acid, [[[5[[(3,4-difluorophenyl)amino]carbonyl]-2-methoxyphenyl]-amino]sulfonyl]-, 2-(4morpholinyl)ethyl ester]",384
2,"COc1ccc(C(=O)Nc2ccc(F)c(F)c2)cc1NS(=O)(=O)NC(=O)OCCCN(C)C [Example 3, Carbamic Acid, [[(5-[[(3,4-diflu rophenyl)amino]carbonyl]-2-methoxyphenyl]amino]sulfonyl]-, 3-(dimethylamino)propyl Ester]",408
3,"COc1ccc(C(=O)Nc2ccc(F)c(F)c2)cc1NS(=O)(=O)NC(=O)OCCN(C)C [Example 5, Carbamic Acid, [[[5-[[(3,4-difluorophenyl)amino]carbonyl]-2-methoxyphenyl]amino]sulfonyl]-, 2-(dimethylamino)ethyl ester]",240
4,"CCS(=O)(=O)CCOC(=O)NS(=O)(=O)Nc1cc(C(=O)Nc2ccc(F)c(F)c2)ccc1OC [Example 8, Carbamic Acid, [[[5-[[(3,4-difluorophenyl)amino]carbonyl]-2-methoxyphenyl]amino]sulfonyl]-, 2-(ethylsulfonyl)ethyl ester]",312
5,"COc1ccc(C(=O)Nc2ccc(F)c(F)c2)cc1NS(=O)(=O)NC(=O)OCCCBr [Example 9, Carbamic Acid, [[[5-[[(3,4-difluorophenyl)amino]carbonyl]-2-methoxyphenyl]amino]sulfonyl]-, 3-bromopropyl ester]",154
6,"CCOC(=O)NS(=O)(=O)Nc1cc(C(=O)Nc2ccc(F)c(F)c2)ccc1OC [Example 19, Carbamic Acid, [[[5-[[(3,4-difluorophenyl)amino]carbonyl]-2-methoxyphenyl]amino]sulfonyl]-, Ethyl Ester]",339
7,"COc1ccc(NS(=O)(=O)NC(=O)Nc2cc(C(=O)Nc3ccc(F)c(F)c3)ccc2OC)cc1 [Example 20, Benzamide, N-(3,4-difluorophenyl)-4-methoxy-3-[[[[[(4-methoxyphenyl)-amino]sulfonyl]amino]carbonyl]amino]]",1050
8,"CCOC(=O)NS(=O)(=O)Nc1cc(-c2cc3ccccc3[nH]2)ccc1OC [Example 26, Carbamic Acid, [[[5-(IH-indol-2-yl)-2-methoxyphenyl]amino]sulfonyl]-, Ethyl Ester]",630
9,"COc1ccc(C(=O)Nc2ccc(F)c(F)c2)cc1NS(=O)(=O)NC(=O)Nc1cc(C(F)(F)F)cc(C(F)(F)F)c1 [Example 62, Benzamide, 3-[[[[[[3,5-bis(trifluoromethyl)phenyl]amino]-carbonyl]amino]-sulfonyl]amino]-N-(3,4-difluorophenyl)-4-methoxy]",173
10,"COc1ccc(C(=O)Nc2ccc(F)c(F)c2)cc1NS(=O)(=O)NC(=O)Nc1ccc(N)cc1 [Example 63, Benzamide, 3-[[[[[(4-aminophenyl)amino]carbonyl]amino]sulfonyl]amino]-N-(3,4-difluorophenyl)-4-methoxy-, mono(trifluoroacetate)]",214
11,"COc1ccc(C(=O)Nc2ccc(F)c(F)c2)cc1NS(=O)(=O)NC(=O)Nc1ccccc1 [Example 67, Benzamide, N-(3,4-difluorophenyl)-4-methoxy-3-[[[[(phenylamino)carbonyl]-amino]sulfonyl]amino]]",182
12,"Carbamic Acid, [[[5-[[(3,4-difluorophenyl)amino]carbonyl]-2-methoxyphenyl]amino]sulfonyl]methyl-, Ethyl ester [Example 69]",154

# Further lines, results first:
row,IC50 [nM],Compound
1,144,"COc1ccc(C(=O)Nc2ccc(F)c(F)c2)cc1NS(=O)(=O)NC(=O)OCCN1CCCC1 [Example 4, Carbamic Acid, [[[5-[[(3,4-difluorophenyl)amino]carbonyl]-2-methoxyphenyl]amino]-suffonyl]-, 2-(1-pyrrolidinyl)ethyl ester]"
2,142,"COc1ccc(C(=O)Nc2ccc(F)c(F)c2)cc1NS(=O)(=O)NC(=O)Nc1ccccc1 [Example 18, Benzamide, N-(3,4-difluorophenyl)-4-methoxy-3-[[[[(phenylamino)carbonyl]-amino]sulfonyl]amino]]"
3,79,"COc1ccc(C(=O)Nc2ccc(F)c(F)c2)cc1NS(=O)(=O)NC(=O)OCCc1cccs1 [Example 7, Carbamic Acid, [[[5-[[(3,4-difluorophenyl)amino]carbonyl]-2-methoxyphenyl]amino]sulfonyl]-, 2-(2-thienyl)ethyl ester]"
4,37,"COc1ccc(C(=O)Nc2ccc(F)c(F)c2)cc1NS(=O)(=O)NC(=O)Nc1cc(Cl)cc(Cl)c1 [Example 17, Benzamide, 3-[[[[[(3,5-dichlorophenyl)amino]-carbonyl]amino]sulfonyl]-amino]-N-(3,4-difluorophenyl)-4-methoxy]"
5,30,"COc1ccc(-c2cc3cc(F)c(F)cc3[nH]2)cc1NS(=O)(=O)N(C)C(=O)OCCCOCc1ccccc1 [Example 13, Carbamic Acid, [[[5-(5,6-difluoro-IH-indol-2-yl)-2-methoxyphenyl]amino]-sulfonyl]methyl-, 3(phenylmethoxy)propyl ester]"
6,25,"COc1ccc(C(=O)Nc2ccc(F)c(F)c2)cc1NS(=O)(=O)NC(=O)Nc1cccc([N+](=O)[O-])c1 [Example 60, Benzamide, N-(3,4-difluorophenyl)-4-methoxy-3-[[[[[(3-nitrophenyl) -amino]carbonyl]amino]sulfonyl]amino]]"
7,10,"COc1ccc(-c2cc3cc(F)c(F)cc3[nH]2)cc1NS(=O)(=O)NC(=O)OCC(=O)OCc1ccccc1 [Example 16, Acetic Acid, [[[[[[5-(5,6-difluoro-IH-indol-2-yl)-2-methoxyphenyl]amino]-sulfonyl]amino]carbonyl]oxy]-, phenylmethyl ester]"
8,6,"CCCCCCCCCCCCOC(=O)NS(=O)(=O)Nc1cc(-c2cc3cc(F)c(F)cc3[nH]2)ccc1OC [Example 1, Carbamic Acid, [[[5-(5,6-difluoro-IH-indol-2-yl)-2-methoxyphenyl]amino]-sulfonyl]-, Dodecyl Ester]"

# Molecular target: T2, rabbit reticulocyte 15-LO (Oryctolagus cuniculus, UniProt P12530)
# T2 construct: 15-LO is obtained from phenylhydrazine-treated rabbits and purified according to the method of Rapoport; from tissue; host or cells: reticulocytes of phenylhydrazine-treated rabbits
# T2 sequence (P12530 1-663): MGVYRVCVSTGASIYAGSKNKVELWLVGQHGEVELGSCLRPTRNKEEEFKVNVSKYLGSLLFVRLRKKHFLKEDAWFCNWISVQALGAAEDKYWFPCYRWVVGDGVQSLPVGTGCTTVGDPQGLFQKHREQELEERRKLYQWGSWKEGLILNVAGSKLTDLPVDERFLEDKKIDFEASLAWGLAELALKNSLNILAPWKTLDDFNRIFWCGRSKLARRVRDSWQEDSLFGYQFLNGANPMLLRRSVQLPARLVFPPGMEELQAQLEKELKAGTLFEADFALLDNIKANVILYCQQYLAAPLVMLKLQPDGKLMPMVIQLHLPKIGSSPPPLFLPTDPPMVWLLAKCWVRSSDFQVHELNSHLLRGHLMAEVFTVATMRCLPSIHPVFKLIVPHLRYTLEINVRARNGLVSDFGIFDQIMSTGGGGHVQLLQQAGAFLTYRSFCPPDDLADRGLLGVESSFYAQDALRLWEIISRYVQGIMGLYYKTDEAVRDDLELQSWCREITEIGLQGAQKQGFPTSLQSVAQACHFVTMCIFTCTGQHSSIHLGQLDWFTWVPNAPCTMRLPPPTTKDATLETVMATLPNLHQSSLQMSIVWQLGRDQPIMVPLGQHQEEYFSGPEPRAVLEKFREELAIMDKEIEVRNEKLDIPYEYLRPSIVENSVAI
# Experiment: Rabbit Reticulocyte 15-LO Assay (H15LO)
# Type: biochemical
# Details: 2 U rabbit reticulocyte 15-LO, 174 μM linoleic acid, 15 minutes at 4° C., 13-HODE quantitated
# Description: In the H15LO assay, a test compound was incubated with 15-LO enzyme in the presence of the linoleic acid substrate. For example, 2 units (U) of rabbit reticulocyte 15-LO and 174 μM linoleic acid were incubated with a known amount of a test compound of the present invention for 15 minutes at 4° C. The total reaction volume was 100 μL in phosphate buffer saline (PBS) containing 0.2% sodium cholate. The reaction was stopped with 100 μL of mobile phase and […] of triethyl phosphite. […] 13-HODE was quantitated by comparing peak areas of individual samples with those from a standard curve generated using authentic 13-HODE.
# 15-LO is obtained from phenylhydrazine-treated rabbits and purified according to the method of Rapoport (Rapoport et al., European Journal of Biochemistry, 1979;96:545-561).
row,IC50 [nM],Compound
1,17,"CCCCCCCCCCCCOC(=O)NS(=O)(=O)Nc1cc(-c2cc3cc(F)c(F)cc3[nH]2)ccc1OC [Example 1, Carbamic Acid, [[[5-(5,6-difluoro-IH-indol-2-yl)-2-methoxyphenyl]amino]-sulfonyl]-, Dodecyl Ester]"
2,12,"COc1ccc(-c2cc3cc(F)c(F)cc3[nH]2)cc1NS(=O)(=O)N(C)C(=O)OCCCOCc1ccccc1 [Example 13, Carbamic Acid, [[[5-(5,6-difluoro-IH-indol-2-yl)-2-methoxyphenyl]amino]-sulfonyl]methyl-, 3(phenylmethoxy)propyl ester]"
3,2,"COc1ccc(-c2cc3cc(F)c(F)cc3[nH]2)cc1NS(=O)(=O)NC(=O)OCC(=O)OCc1ccccc1 [Example 16, Acetic Acid, [[[[[[5-(5,6-difluoro-IH-indol-2-yl)-2-methoxyphenyl]amino]-sulfonyl]amino]carbonyl]oxy]-, phenylmethyl ester]"
4,10,"COc1ccc(C(=O)Nc2ccc(F)c(F)c2)cc1NS(=O)(=O)NC(=O)Nc1cc(Cl)cc(Cl)c1 [Example 17, Benzamide, 3-[[[[[(3,5-dichlorophenyl)amino]-carbonyl]amino]sulfonyl]-amino]-N-(3,4-difluorophenyl)-4-methoxy]"
5,23,"COc1ccc(-c2cc3cc(F)c(F)cc3[nH]2)cc1NS(=O)(=O)NC(=O)OC(C)(C)C [Example 53, Carbamic Acid, [[[5-(5,6-difluoro-indol-2-yl)-2-methoxyphenyl]amino]-sulfonyl]-, 1,1-dimethylethyl ester]"
